The text below walks through data of patent US11242407B2, “High-affinity anti-MERTK antibodies and uses thereof” (Rgenix, Inc., priority 2019, dated 2022).

The subject of data set [1] is MERTK-expressing M2 macrophages. Put plainly: Macrophage viability assay, M2. The conditions noted are these: 4 days of treatment in differentiating medium.
Experimental: Macrophage Viability Assay
(§1) Peripheral blood mononuclear cells (PBMCs) were prepared from buffy coats of healthy donors by Histopaque-1077 (Sigma, 10771) density gradient centrifugation at 250×g at room temperature for 30 min. The intermediate layer containing PBMCs was collected and cells were washed with PBS/2 mM EDTA three times. Human monocytes were isolated from PBMCs by magnetic separation using human Classical Monocyte Isolation Kit (Miltenyi, 130-117-337) according to the manufacturer's instructions. Eighty thousand monocytes per well were cultured on 96-well plates in 150 μL PBMC medium (RPMI 1640 medium (Gibco, 11875093) containing 10% human AB serum, 10% FBS, L-glutamine, penicillin, and streptomycin) at 37° C. with 5% CO2. Monocytes were treated with GM-CSF (20 ng/mL; Biolegend, 766102) or M-CSF (50 ng/mL; Biolegend, 574804) for 8 days to differentiate to M1 or M2 macrophages, respectively. […] On day 4, 100 μL of CellTiter-Glo 2.0 Cell Viability Assay reagent (Promega, G9241) was added to each well, incubated for 10 mins and the luminescence signal was detected with a GloMax Discover Microplate Reader (Promega). The mean relative luminometer units (RLU) from duplicate wells were plotted with GraphPad Prism.
The subject of data set [2] is MERTK-expressing M1 macrophages. Nature of the data set: Macrophage viability assay, M1. The settings on record: 4 days of treatment in differentiating medium.
Experimental: Macrophage Viability Assay
as §1

Take `CCCCNc1ncc2c(-c3ccc(S(=O)(=O)N4CCOCC4)cc3)nn(C3CCC(O)CC3)c2n1` (centres unmarked) [UNC1062, reference compound]: the “viability of M2 macrophages (CellTiter-Glo 2.0)” value in data set [1] is “neither z10 nor z10-MMAE nor z10-SN-38 nor the MERTK inhibitor UNC1062 affect the viability”. For the same molecule, the “viability of M1 macrophages (CellTiter-Glo 2.0)” value in data set [2] was “neither z10 nor z10-MMAE nor z10-SN-38 nor the MERTK inhibitor UNC1062 affect the viability”.
